Measured values reported in patent US9687432B2, “Antimicrobial bispyridine amine compositions and uses” (LONZA INC., priority 2012, dated 2017).

Test system: Bacillus licheniformis (14580)
Assay: MIC test against skin microorganisms
Assay type: cell-based
Conditions: 48 hrs at 36° C., two different sets
Procedure: MICs for the organisms were determined using a standard 96-well microtiter plate assay in Trypic Soy Broth (TSB). […] Bacteria were grown in Tryptic Soy Broth or Brain Heart Infusion (E. hirae) for 24 hrs and were adjusted to one million cells per milliliter in same type of broth. Following incubation (48 hrs at 36° C.), the lowest concentration of test compound inhibiting growth was recorded as the Minimum Inhibitory Concentration (MIC). The actives were serially diluted and tested at final concentrations ranging from 156.3-0.61 ppm. MIC was run for two different sets.
Bacteria were grown overnight in Tryptic Soy Brother (TSB) or Brain Heart Infusion (BHI) and were adjusted to approximately 1×10^6 colony forming units per ml (cfu/ml) and used to inoculate the wells. Final bacterial concentration in the test wells was 5×10^5 cfu/ml. For Corynebacterium spp, TSB was used for the first set and BHI for the second set. Inoculated microtiter plates were incubated at 36° C. for 48 hours.
The lowest concentration of test compound inhibiting growth was recorded as the minimum inhibitory concentration.

CCCCCCCCCCCCCCCCCC(=O)O.CCCCCCCCCCCCCCCCCC(=O)O.CCCCCCCCN=c1ccn(CCCCCCCCCCn2ccc(=NCCCCCCCC)cc2)cc1 [Octenidine distearate, octenidine distearate]
MIC (ppm): 9.76-19.53 ppm
